How the values were obtained:
Conditions in all cases: three weeks after treatment
[1] = system: Triticum aestivum; assay: Post-emergence herbicidal evaluation, TRZAW
Experimental: (§2) Each pot is examined three weeks after treatment and phytotoxicity is assessed according to the rating system set forth below.
(§3) These acetone solutions are diluted with water and the resulting formulations applied at dosage levels equivalent of about 0.4 to 0.1 kg per hectare of test compound per pot. After spraying the plants are placed on greenhouse benches and are cared for in the usual manner, commensurate with conventional greenhouse practices.

[2] = system: Setaria viridis; assay: Pre-emergence herbicidal evaluation, SETVI; type: in vivo
Excerpt: (§1) The treated pots are then placed on greenhouse benches, watered and cared for in accordance with conventional greenhouse procedures.

[3] = system: Glycine max; assay: Post-emergence herbicidal evaluation, GLXMA
[4] = system: Lolium perenne; assay: Pre-emergence herbicidal evaluation, LOLPE; type: in vivo
Excerpt: as §1

[5] = system: Lolium perenne; assay: Post-emergence herbicidal evaluation, LOLPE
[6] = system: Zea mays; assay: Post-emergence herbicidal evaluation, ZEAMX
[7] = system: Triticum aestivum; assay: Pre-emergence herbicidal evaluation, TRZAW; type: in vivo
Excerpt: as §1

[8] = system: Amaranthus tuberculatus; assay: Pre-emergence herbicidal evaluation, AMATA; type: in vivo
Excerpt: as §1

[9] = system: Apera spica venti; assay: Post-emergence herbicidal evaluation, APESV
Experimental: (§4) The compounds of the invention are tested for pre- and post-emergence herbicidal activity.
as §2, §3

[10] = system: Echinochloa crus-galli; assay: Post-emergence herbicidal evaluation, ECHCG
[11] = system: Oryza sativum; assay: Post-emergence herbicidal evaluation, ORYSA
Experimental: as §4, §2, §3

[12] = system: Apera spica venti; assay: Pre-emergence herbicidal evaluation, APESV; type: in vivo
Excerpt: as §1

[13] = system: Alopecurus myosuroides; assay: Post-emergence herbicidal evaluation, ALOMY
[14] = system: Hordeum vulgare; assay: Post-emergence herbicidal evaluation, HORVW
[15] = system: Oryza sativum; assay: Pre-emergence herbicidal evaluation, ORYSA; type: in vivo
Excerpt: as §1

[16] = system: Echinochloa crus-galli; assay: Pre-emergence herbicidal evaluation, ECHCG; type: in vivo
Excerpt: as §1

[17] = system: Setaria viridis; assay: Post-emergence herbicidal evaluation, SETVI
[18] = system: Glycine max; assay: Pre-emergence herbicidal evaluation, GLXMA; type: in vivo
Excerpt: as §1

[19] = system: Hordeum vulgare; assay: Pre-emergence herbicidal evaluation, HORVW; type: in vivo
Excerpt: as §1

[20] = system: Zea mays; assay: Pre-emergence herbicidal evaluation, ZEAMX; type: in vivo
Excerpt: as §1

[21] = system: Alopecurus myosuroides; assay: Pre-emergence herbicidal evaluation, ALOMY; type: in vivo
Excerpt: as §1

[22] = system: Amaranthus tuberculatus; assay: Post-emergence herbicidal evaluation, AMATA; type: in vivo
[23] = system: Galium aparine; assay: Post-emergence herbicidal evaluation, GALAP

CC1=CC(N(C)C(=O)COc2nnc(C(F)(F)C(F)(F)F)s2)=CC(C)(C)C1 [Example 7]
0 (0 - No effect): phytotoxicity rating TRZAW ([1]; 0.100 kg/ha) | phytotoxicity rating TRZAW ([1]; 0.200 kg/ha) | phytotoxicity rating TRZAW ([1]; 0.400 kg/ha) | phytotoxicity rating SETVI ([2]; 0.100 kg/ha) | phytotoxicity rating SETVI ([2]; 0.200 kg/ha) | phytotoxicity rating SETVI ([2]; 0.400 kg/ha) | phytotoxicity rating LOLPE ([4]; 0.100 kg/ha) | phytotoxicity rating LOLPE ([4]; 0.200 kg/ha) | phytotoxicity rating LOLPE ([5]; 0.100 kg/ha) | phytotoxicity rating ZEAMX ([6]; 0.100 kg/ha) | phytotoxicity rating ZEAMX ([6]; 0.200 kg/ha) | phytotoxicity rating ZEAMX ([6]; 0.400 kg/ha) | phytotoxicity rating TRZAW ([7]; 0.100 kg/ha) | phytotoxicity rating TRZAW ([7]; 0.200 kg/ha) | phytotoxicity rating TRZAW ([7]; 0.400 kg/ha) | phytotoxicity rating TRZAW ([7]; 0.800 kg/ha) | phytotoxicity rating AMATA ([8]; 0.100 kg/ha) | phytotoxicity rating AMATA ([8]; 0.200 kg/ha) | phytotoxicity rating APESV ([9]; 0.100 kg/ha) | phytotoxicity rating APESV ([9]; 0.200 kg/ha) | phytotoxicity rating ECHCG ([10]; 0.100 kg/ha) | phytotoxicity rating ECHCG ([10]; 0.200 kg/ha) | phytotoxicity rating ECHCG ([10]; 0.400 kg/ha) | phytotoxicity rating ORYSA ([11]; 0.100 kg/ha) | phytotoxicity rating ORYSA ([11]; 0.200 kg/ha) | phytotoxicity rating APESV ([12]; 0.200 kg/ha) | phytotoxicity rating APESV ([12]; 0.400 kg/ha) | phytotoxicity rating ALOMY ([13]; 0.100 kg/ha) | phytotoxicity rating ALOMY ([13]; 0.200 kg/ha) | phytotoxicity rating HORVW ([14]; 0.100 kg/ha) | phytotoxicity rating HORVW ([14]; 0.200 kg/ha) | phytotoxicity rating HORVW ([14]; 0.400 kg/ha) | phytotoxicity rating ORYSA ([15]; 0.100 kg/ha) | phytotoxicity rating ORYSA ([15]; 0.200 kg/ha) | phytotoxicity rating ORYSA ([15]; 0.400 kg/ha) | phytotoxicity rating ECHCG ([16]; 0.100 kg/ha) | phytotoxicity rating ECHCG ([16]; 0.200 kg/ha) | phytotoxicity rating SETVI ([17]; 0.100 kg/ha) | phytotoxicity rating SETVI ([17]; 0.200 kg/ha) | phytotoxicity rating SETVI ([17]; 0.400 kg/ha) | phytotoxicity rating GLXMA ([18]; 0.100 kg/ha) | phytotoxicity rating GLXMA ([18]; 0.200 kg/ha) | phytotoxicity rating GLXMA ([18]; 0.400 kg/ha) | phytotoxicity rating GLXMA ([18]; 0.800 kg/ha) | phytotoxicity rating HORVW ([19]; 0.100 kg/ha) | phytotoxicity rating HORVW ([19]; 0.200 kg/ha) | phytotoxicity rating ZEAMX ([20]; 0.100 kg/ha) | phytotoxicity rating ZEAMX ([20]; 0.200 kg/ha) | phytotoxicity rating ZEAMX ([20]; 0.400 kg/ha) | phytotoxicity rating ALOMY ([21]; 0.100 kg/ha) | phytotoxicity rating GALAP ([23]; 0.100 kg/ha)
1 (1 - Trace effect): phytotoxicity rating HORVW ([19]; 0.400 kg/ha) | phytotoxicity rating HORVW ([19]; 0.800 kg/ha) | phytotoxicity rating ZEAMX ([20]; 0.800 kg/ha)
9 (9 - Complete kill): phytotoxicity rating LOLPE ([4]; 0.800 kg/ha) | phytotoxicity rating ECHCG ([16]; 0.800 kg/ha)
6 (6 - Herbicidal effect): phytotoxicity rating LOLPE ([5]; 0.200 kg/ha) | phytotoxicity rating LOLPE ([5]; 0.400 kg/ha) | phytotoxicity rating ECHCG ([16]; 0.400 kg/ha)
2 (2 - Slight effect): phytotoxicity rating SETVI ([2]; 0.800 kg/ha) | phytotoxicity rating GLXMA ([3]; 0.100 kg/ha) | phytotoxicity rating GLXMA ([3]; 0.200 kg/ha) | phytotoxicity rating APESV ([9]; 0.400 kg/ha) | phytotoxicity rating ORYSA ([15]; 0.800 kg/ha) | phytotoxicity rating ALOMY ([21]; 0.200 kg/ha)
7 (7 - Good herbicidal effect): phytotoxicity rating APESV ([12]; 0.800 kg/ha)
3 (3 - Moderate effect): phytotoxicity rating LOLPE ([4]; 0.400 kg/ha) | phytotoxicity rating AMATA ([8]; 0.400 kg/ha) | phytotoxicity rating AMATA ([8]; 0.800 kg/ha) | phytotoxicity rating ORYSA ([11]; 0.400 kg/ha) | phytotoxicity rating AMATA ([22]; 0.100 kg/ha) | phytotoxicity rating AMATA ([22]; 0.200 kg/ha) | phytotoxicity rating GALAP ([23]; 0.200 kg/ha)
5 (5 - Definite injury): phytotoxicity rating GLXMA ([3]; 0.400 kg/ha) | phytotoxicity rating ALOMY ([21]; 0.400 kg/ha) | phytotoxicity rating ALOMY ([21]; 0.800 kg/ha) | phytotoxicity rating AMATA ([22]; 0.400 kg/ha) | phytotoxicity rating GALAP ([23]; 0.400 kg/ha)
4 (4 - Injury): phytotoxicity rating ALOMY ([13]; 0.400 kg/ha)

— patent US6339042B1, “Herbicidal N-cyclohexadienyl heteroaryloxyacetamides” (American Cyanamid Co., priority 1999, dated 2002)
